Results: the NIST ThermoML archive (doi:10.1021/je500363r)
± gives the expanded uncertainty stated by the source.

Legend:
[1] = Crystal; DTA
[2] = Molar enthalpy of transition or fusion; conditions: Crystal; DSC

SMILES	Normal melting temperature [1] [°C]	Molar enthalpy of transition or fusion [2] [kcal/mol]
Br.c1ccc(NC2=NCCC3(CCCCC3)[Se]2)cc1	144.8 ± 0.5	4.3 ± 0.263
Br.Fc1ccc(NC2=NCCC3(CCCCC3)[Se]2)cc1	196.2 ± 0.5	6 ± 0.263
Br.CC(C)c1ccc(NC2=NCCC3(CCCCC3)[Se]2)cc1	148.4 ± 0.5	3.08 ± 0.239
